Results on eleven molecules are retold here after patent publication US20240158348A1, “HERBICIDAL CYCLIC AMIDES N-SUBSTITUTED WITH A HALOALKYLSULFONYLANILIDE GROUP” (FMC Corporation, priority 2021, published 2024).

Data set [1] relates to foxtail, giant (giant foxtail, Setaria faberi). Description: Test A preemergence, giant foxtail. The format is in vivo. As to conditions: pre-emergence, 240 h, 0 to 100 scale, 10 days, read-out: Plant response rating, Foxtail, Giant; for pest or weed control at 31 g/ha: 31 g ai/ha; for pest or weed control at 125 g/ha: 125 g ai/ha. The text has this:
(§1) Seeds of plant species selected from barnyardgrass (Echinochloa crus-galli), blackgrass (Alopecurus myosuroides), corn (Zea mays), foxtail, giant (giant foxtail, Setaria faberi), goosegrass (Eleusine indica), kochia (Bassia scoparia), oat, wild (wild oat, Avena fatua), pigweed, palmer (palmer amaranth, Amaranthus palmeri), pigweed, redroot (redroot pigweed, Amaranthus retroflexus), ragweed (common ragweed, Ambrosia artemisiifolia), ryegrass, Italian (Italian ryegrass, Lolium multiflorum), soybean (Glycine max), and wheat (Triticum aestivum) were planted into a blend of loam soil and sand and treated preemergence with a directed soil spray using test chemicals formulated in a non-phytotoxic solvent mixture which included a surfactant.
(§2) At the same time, plants selected from these crop and weed species and also galium (catchweed bedstraw, Galium aparine) and horseweed (Erigeron canadensis) were planted in pots containing the same blend of loam soil and sand and treated with postemergence applications of test chemicals formulated in the same manner. Plants ranged in height from 2 to 10 cm and were in the one- to two-leaf stage for the postemergence treatment. Treated plants and untreated controls were maintained in a greenhouse for 10 days, after which time all treated plants were compared to untreated controls and visually evaluated for injury. Plant response ratings, summarized in Table A, are based on a 0 to 100 scale where 0 is no effect and 100 is complete control. A dash (-) response means no test result.

A further data set deals with corn (Zea mays). Description: Test A postemergence, corn. The format is in vivo. Conditions: post-emergence, 240 h, 0 to 100 scale, 10 days; for Corn plant response rating (crop injury, 0 = no effect, 100 = complete kill) at 31 g/ha: 31 g ai/ha; for Corn plant response rating (crop injury, 0 = no effect, 100 = complete kill) at 125 g/ha: 125 g ai/ha.
Excerpt: as §1, §2

In data set [2] the test system is ragweed (common ragweed, Ambrosia artemisiifolia). As to the kind of experiment: Test A preemergence, ragweed. It counts as in vivo. Conditions: pre-emergence, 240 h, 0 to 100 scale, 10 days, read-out: Plant response rating, Ragweed; for pest or weed control at 31 g/ha: 31 g ai/ha; for pest or weed control at 125 g/ha: 125 g ai/ha.
Excerpt: as §1, §2

For another data set, the system named is kochia (Bassia scoparia). As to the kind of experiment: Test A preemergence, kochia. The format is in vivo. As to conditions: pre-emergence, 240 h, 0 to 100 scale, 10 days, read-out: Plant response rating, Kochia; for pest or weed control at 31 g/ha: 31 g ai/ha; for pest or weed control at 125 g/ha: 125 g ai/ha.
Excerpt: as §1, §2

Data set [3] concerns blackgrass (Alopecurus myosuroides). As to the kind of experiment: Test A postemergence, blackgrass. Conditions: 0 to 100 scale, 10 days. The format is in vivo.
Excerpt: as §1, §2

For data set [4] the test system is unchanged. As to the kind of experiment: Test A preemergence, blackgrass. As to conditions: 0 to 100 scale, 10 days. It counts as in vivo.
Excerpt: as §1, §2

Data set [5] has as its system goosegrass (Eleusine indica). Description: Test A postemergence, goosegrass. The format is in vivo. As to conditions: 0 to 100 scale, 10 days.
Excerpt: as §1, §2

Data set [6] concerns wheat (Triticum aestivum). As to the kind of experiment: Test A preemergence, wheat. It counts as in vivo. As to conditions: 0 to 100 scale, 10 days.
Excerpt: as §1, §2

The subject of the next data set is soybean (Glycine max). Description: Test A postemergence, soybean. The format is in vivo. As to conditions: 0 to 100 scale, 10 days.
Excerpt: as §1, §2

The structures appear in SMILES notation.

The melting point is the temperature, or range, at which the solid turns liquid. Consider `C#CCOC1CCN(c2cc(NS(=O)(=O)C(F)(F)F)c(C)cc2C)C1=O` (stereo not drawn) [Compound 1, N-[2,4-dimethyl-5-[2-oxo-3-(2-propyn-1-yloxy)-1-pyrrolidinyl]phenyl]-1,1,1-trifluoromethanesulfonamide], for which the melting point was in the range of 164 to 167 °C. In addition, in data set [1], the pest or weed control at 31 g/ha came to 90% and the pest or weed control at 125 g/ha was determined as 100%. Also, in the data set with corn (Zea mays), the Corn plant response rating (crop injury, 0 = no effect, 100 = complete kill) at 31 g/ha worked out at 50% and the Corn plant response rating (crop injury, 0 = no effect, 100 = complete kill) at 125 g/ha worked out at 90%. For the same molecule, in [2], the pest or weed control at 31 g/ha was 30% and the pest or weed control at 125 g/ha amounted to 90%. In the data set with kochia (Bassia scoparia), the pest or weed control at 31 g/ha stood at 70% and the pest or weed control at 125 g/ha was 100%. Besides, in data set [3] (31 g ai/ha), the “Plant response rating, Blackgrass” value came to 10. Besides, the “Plant response rating, Blackgrass” value in [3] (125 g ai/ha) was determined as 50.

Molecule `C=CCOC1CCN(c2cc(NS(=O)(=O)C(F)(F)F)c(C)cc2C)C1=O` (stereo not drawn) [Compound 2, N-[2,4-dimethyl-5-[2-oxo-3-(2-propen-1-yloxy)-1-pyrrolidinyl]phenyl]-1,1,1-trifluoromethanesulfonamide] yielded a melting point of 134 to 137 °C. Also, in data set [1], the pest or weed control at 31 g/ha came out at 100% and the pest or weed control at 125 g/ha came to 100%. For the same molecule, in the data set on corn (Zea mays), the Corn plant response rating (crop injury, 0 = no effect, 100 = complete kill) at 31 g/ha came to 0% and the Corn plant response rating (crop injury, 0 = no effect, 100 = complete kill) at 125 g/ha came to 90%. In [2], the pest or weed control at 31 g/ha is 20% and the pest or weed control at 125 g/ha turned out to be 80%. Besides, in the data set on kochia (Bassia scoparia), the pest or weed control at 31 g/ha is 50% and the pest or weed control at 125 g/ha was determined as 90%. Besides, in data set [3] (31 g ai/ha), the “Plant response rating, Blackgrass” value was determined as 20. Moreover, the “Plant response rating, Blackgrass” value in data set [3] (125 g ai/ha) came to 40.

On to `Cc1cc(C)c(N(COC(=O)C(C)(C)C)S(=O)(=O)C(F)(F)F)cc1N1CCC(OC2CCCC2)C1=O` (stereo not drawn) [Compound 5, [[5-[3-(cyclopentyloxy)-2-oxo-1-pyrrolidinyl]-2,4-dimethylphenyl][(trifluoromethyl)sulfonyl]amino]methyl 2,2-dimethylpropanoate], for which the “Plant response rating, Blackgrass” value in data set [4] (31 g ai/ha) was 0; in [4] (125 g ai/ha) it was 40; in data set [3] (31 g ai/ha), 0; in data set [3] (125 g ai/ha), 0. The “Plant response rating, Goosegrass” value in [5] (31 g ai/ha) is given as 50; in [5] (125 g ai/ha) it was 90. Besides, the pest or weed control at 31 g/ha (in data set [1]; in [2]; in the data set on kochia (Bassia scoparia)) was 0% throughout. For the same molecule, the pest or weed control at 125 g/ha worked out at 50% in [1], 40% in data set [2] and 60% in the data set on kochia (Bassia scoparia). The “Plant response rating, Wheat” value in data set [6] (31 g ai/ha) is 0; in data set [6] (125 g ai/ha), 20. In the data set with corn (Zea mays), this molecule showed a Corn plant response rating (crop injury, 0 = no effect, 100 = complete kill) at 31 g/ha of 0%. In the data set with corn (Zea mays), this molecule had a Corn plant response rating (crop injury, 0 = no effect, 100 = complete kill) at 125 g/ha of 80%. Moreover, the “Plant response rating, Soybean” value was 60 with soybean (Glycine max) (31 g ai/ha) and 70 in the data set with soybean (Glycine max) (125 g ai/ha).

Regarding `Cc1cc(C)c(N2CCC(OC3CCCC3)C2=O)cc1NS(=O)(=O)C(F)(F)F` (stereo not drawn) [Compound 6, N-[5-[3-(cyclopentyloxy)-2-oxo-1-pyrrolidinyl]-2,4-dimethylphenyl]-1,1,1-trifluoromethanesulfonamide], the “Plant response rating, Blackgrass” value was 50 in data set [4] (31 g ai/ha), 90 in data set [4] (125 g ai/ha), 0 in data set [3] (31 g ai/ha) and 40 in data set [3] (125 g ai/ha). Moreover, the “Plant response rating, Goosegrass” value in [5] (31 g ai/ha) stood at 80; in data set [5] (125 g ai/ha) it was 90. In addition, the results for the pest or weed control at 31 g/ha (in data set [1]; in data set [2]; in the data set on kochia (Bassia scoparia)) were 100%, 30% and 30%, respectively. Moreover, the pest or weed control at 125 g/ha in data set [1] is 100%; in data set [2] it was 90%; in the data set on kochia (Bassia scoparia) it was 90%. Besides, the figures for the “Plant response rating, Wheat” value in [6] (31 g ai/ha) and in [6] (125 g ai/ha) were 80 and 100, respectively. The molecule also registered a Corn plant response rating (crop injury, 0 = no effect, 100 = complete kill) at 31 g/ha in the data set on corn (Zea mays) of 0%. Besides, the Corn plant response rating (crop injury, 0 = no effect, 100 = complete kill) at 125 g/ha with corn (Zea mays) worked out at 90%. Also, the “Plant response rating, Soybean” value with soybean (Glycine max) (31 g ai/ha) and in the data set on soybean (Glycine max) (125 g ai/ha) was 70 each time.

`Cc1cc(C)c(N(COC(=O)C(C)(C)C)S(=O)(=O)C(F)(F)F)cc1N1CCC(OC2CC2)C1=O` (stereo not drawn) [Compound 7, [[5-[3-(cyclopropyloxy)-2-oxo-1-pyrrolidinyl]-2,4-dimethylphenyl][(trifluoromethyl)sulfonyl]amino]methyl 2,2-dimethylpropanoate]: the “Plant response rating, Blackgrass” value in [4] (31 g ai/ha) worked out at 30; in [4] (125 g ai/ha), 80; in data set [3] (31 g ai/ha), 20; in data set [3] (125 g ai/ha), 50. Moreover, the “Plant response rating, Goosegrass” value in data set [5] (31 g ai/ha) and in data set [5] (125 g ai/ha) was 90 in each case. In addition, the pest or weed control at 31 g/ha in data set [1] is 90%; in [2], 30%; in the data set on kochia (Bassia scoparia), 60%. The pest or weed control at 125 g/ha is 90% in [1], 90% in data set [2] and 100% in the data set with kochia (Bassia scoparia). For the same molecule, the entries for the “Plant response rating, Wheat” value in [6] (31 g ai/ha) and in data set [6] (125 g ai/ha) were 0 and 80, respectively. This molecule showed a Corn plant response rating (crop injury, 0 = no effect, 100 = complete kill) at 31 g/ha in the data set with corn (Zea mays) of 90%. Further, in the data set with corn (Zea mays), the Corn plant response rating (crop injury, 0 = no effect, 100 = complete kill) at 125 g/ha came to 90%. Moreover, the “Plant response rating, Soybean” value in the data set on soybean (Glycine max) (31 g ai/ha) and with soybean (Glycine max) (125 g ai/ha) was 90 each time.

With `Cc1cc(C)c(N(COC(=O)C(C)(C)C)S(=O)(=O)C(F)(F)F)cc1N1CCC(OC2CCC2)C1=O` (stereo not drawn) [Compound 8, [[5-[3-(cyclobutyloxy)-2-oxo-1-pyrrolidinyl]-2,4-dimethylphenyl][(trifluoromethyl)sulfonyl]amino]methyl 2,2-dimethylpropanoate], the “Plant response rating, Blackgrass” value in [4] (31 g ai/ha) came out at 30; in [4] (125 g ai/ha), 70; in [3] (31 g ai/ha), 30; in data set [3] (125 g ai/ha), 40. In addition, the “Plant response rating, Goosegrass” value in data set [5] (31 g ai/ha) came out at 80; in [5] (125 g ai/ha), 90. For the same molecule, the pest or weed control at 31 g/ha in data set [1] stood at 90%; in data set [2] it was 20%; with kochia (Bassia scoparia) it was 0%. The pest or weed control at 125 g/ha turned out to be 100% in data set [1], 90% in data set [2] and 100% with kochia (Bassia scoparia). In addition, the “Plant response rating, Wheat” value in data set [6] (31 g ai/ha) is 0; in [6] (125 g ai/ha) it was 50. This molecule came in with a Corn plant response rating (crop injury, 0 = no effect, 100 = complete kill) at 31 g/ha in the data set with corn (Zea mays) of 30%. For the same molecule, the Corn plant response rating (crop injury, 0 = no effect, 100 = complete kill) at 125 g/ha in the data set on corn (Zea mays) is 80%. The “Plant response rating, Soybean” value in the data set on soybean (Glycine max) (31 g ai/ha) came out at 60; in the data set on soybean (Glycine max) (125 g ai/ha), 90.

Molecule `CO/N=C1\CCN(c2cc(NS(=O)(=O)C(F)(F)F)c(C)cc2C)C1=O` [Compound 9, 1,1,1-trifluoro-N-[5-[3-(methoxyimino)-2-oxo-1-pyrrolidinyl]-2,4-dimethylphenyl]methanesulfonamide] yielded a melting point of 226 to 229 °C.

Molecule `Cc1cc(C)c(N2CC/C(=N\O)C2=O)cc1NS(=O)(=O)C(F)(F)F` [Compound 10, 1,1,1-trifluoro-N-[5-[3-(hydroxyimino)-2-oxo-1-pyrrolidinyl]-2,4-dimethylphenyl]methanesulfonamide] displayed a melting point of 213 to 216 °C.

Consider `C=CCO/N=C1\CCN(c2cc(NS(=O)(=O)C(F)(F)F)c(C)cc2C)C1=O` [Compound 11], for which the melting point is 184 to 187 °C.

For the molecule `CCO/N=C1\CCN(c2cc(NS(=O)(=O)C(F)(F)F)c(C)cc2C)C1=O` [Compound 12, N-[5-[3-(ethoxyimino)-2-oxo-1-pyrrolidinyl]-2,4-dimethylphenyl]-1,1,1-trifluoromethanesulfonamide], the melting point lay within 201 to 204 °C.

`C#CCO/N=C1\CCN(c2cc(NS(=O)(=O)C(F)(F)F)c(C)cc2C)C1=O` [Compound 13, N-[2,4-dimethyl-5-[2-oxo-3-[(2-propyn-1-yloxy)imino]-1-pyrrolidinyl]phenyl]-1,1,1-trifluoromethanesulfonamide] yielded a melting point of 175 to 178 °C.
